Values quoted from earlier work in patent publication US11485742B2, “2-azaspiro[3.4]octane derivatives as M4 agonists” (NOVARTIS AG, priority 2019, dated 2022).

Test system: hyperactivity in mice induced by the stimulant d-amphetamine
Settings: general statement on clinically efficacious muscarinic anti-psychotics; cited from earlier work

## CCCCCCOc1nsnc1C1=CCCN(C)C1 [xanomeline]
  activity in the amphetamine induced hyperlocomotion assay: active
